Read-outs that look alike come from different tables or passages of the source.
Legend:
collagenase = conditions: for Collagenase Activity/Days 1: day 1; for Collagenase Activity/Days 2: day 2; for Collagenase Activity/Days 4: day 4; for Collagenase Activity/Days 7: day 7;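 on all read-outs here: nutrient agar containing 0.5% Azocoll with inhibitor, topped by a fresh hide piece, kept at 30 °C, collagenase from hide bacteria scored visually as clearing zone around growth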
Protocol: Nutrient agar amended with 0.5% AZOCOLL was used as the test medium to study collagenase activity. The nutrient agar was prepared and autoclaved and then was cooled to 55° C. Azocol was added to give a final concentration of 0.5%. […] Fresh hides were obtained from a tannery and were cut into pieces of approximately 2 cm square. One 2×2 cm hide sample was placed on top of the agar containing the inhibitors. Treated samples were incubated at 30° C. and evaluated after 24 hours, 2 days, 3 or 4 days and 7 days for collagenase activity and also for the growth of the bacteria. The bacteria from the hides secreted collagenase into the medium as they grew to degrade the collagen in the azocoll medium and collagenase activity was determined by visual inspection of the clear zone around the bacteria

[1] = system: mixed bacteria on fresh hide samples; set-up: Growth/Days 2 / Growth/Days 4: key to the marks not given beside the values; conditions: for Growth/Days 1: day 1; for Growth/Days 2: day 2; for Growth/Days 4: day 4;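 on all read-outs here: fresh hide pieces laid on inhibitor-containing nutrient agar supplemented with 0.5% Azocoll, incubated at 30 °C, then scored for growth of bacteria originating from the hide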

Compound: O=C([O-])CN(CCN(CC(=O)O)CC(=O)O)CC(=O)[O-].[Na+].[Na+] [Na2EDTA, ethylenediaminetetraacetic acid disodium salt]
- Collagenase Activity/Days 1 (collagenase; Conc. 0.025%): ++++
- Collagenase Activity/Days 2 (collagenase; Conc. 0.025%): ++++
- Collagenase Activity/Days 4 (collagenase; Conc. 0.025%): ++++
- Collagenase Activity/Days 7 (collagenase; Conc. 0.025%): ++++
- Collagenase Activity/Days 1 (collagenase; Conc. 0.05%): 0
- Collagenase Activity/Days 2 (collagenase; Conc. 0.05%): +++
- Collagenase Activity/Days 4 (collagenase; Conc. 0.05%): ++++
- Collagenase Activity/Days 7 (collagenase; Conc. 0.05%): ++++
- Collagenase Activity/Days 1 (collagenase; Conc. 0.075%): +
- Collagenase Activity/Days 2 (collagenase; Conc. 0.075%): +++
- Collagenase Activity/Days 4 (collagenase; Conc. 0.075%): ++++
- Collagenase Activity/Days 7 (collagenase; Conc. 0.075%): ++++
- Collagenase Activity/Days 1 (collagenase; Conc. 0.1%): 0
- Collagenase Activity/Days 2 (collagenase; Conc. 0.1%): +
- Collagenase Activity/Days 4 (collagenase; Conc. 0.1%): +++
- Collagenase Activity/Days 7 (collagenase; Conc. 0.1%): +++
- Collagenase Activity/Days 1 (collagenase; Conc. 0.2%): 0
- Collagenase Activity/Days 2 (collagenase; Conc. 0.2%): 0
- Collagenase Activity/Days 4 (collagenase; Conc. 0.2%): 0
- Collagenase Activity/Days 7 (collagenase; Conc. 0.2%): +
- Collagenase Activity/Days 1 (collagenase; Conc. 0.3%): 0
- Collagenase Activity/Days 2 (collagenase; Conc. 0.3%): 0
- Collagenase Activity/Days 4 (collagenase; Conc. 0.3%): 0
- Collagenase Activity/Days 7 (collagenase; Conc. 0.3%): +
- Collagenase Activity/Days 1 (collagenase; Conc. 0.4%): 0
- Collagenase Activity/Days 2 (collagenase; Conc. 0.4%): 0
- Collagenase Activity/Days 4 (collagenase; Conc. 0.4%): 0
- Collagenase Activity/Days 7 (collagenase; Conc. 0.4%): 0
- Collagenase Activity/Days 1 (collagenase; Conc. 0.5%): 0
- Collagenase Activity/Days 2 (collagenase; Conc. 0.5%): 0
- Collagenase Activity/Days 4 (collagenase; Conc. 0.5%): 0
- Collagenase Activity/Days 7 (collagenase; Conc. 0.5%): 0
- Growth/Days 1 ([1]; Conc. 0.025%): ++++
- Growth/Days 2 ([1]; Conc. 0.025%): ++++
- Growth/Days 4 ([1]; Conc. 0.025%): ++++
- Growth/Days 1 ([1]; Conc. 0.05%): ++++
- Growth/Days 2 ([1]; Conc. 0.05%): ++++
- Growth/Days 4 ([1]; Conc. 0.05%): ++++
- Growth/Days 1 ([1]; Conc. 0.075%): ++++
- Growth/Days 2 ([1]; Conc. 0.075%): ++++
- Growth/Days 4 ([1]; Conc. 0.075%): ++++
- Growth/Days 1 ([1]; Conc. 0.1%): ++
- Growth/Days 2 ([1]; Conc. 0.1%): ++++
- Growth/Days 4 ([1]; Conc. 0.1%): ++++
- Growth/Days 1 ([1]; Conc. 0.2%): 0
- Growth/Days 2 ([1]; Conc. 0.2%): +++
- Growth/Days 4 ([1]; Conc. 0.2%): ++++
- Growth/Days 1 ([1]; Conc. 0.3%): 0
- Growth/Days 2 ([1]; Conc. 0.3%): +++
- Growth/Days 4 ([1]; Conc. 0.3%): ++++
- Growth/Days 1 ([1]; Conc. 0.4%): 0
- Growth/Days 2 ([1]; Conc. 0.4%): +++
- Growth/Days 4 ([1]; Conc. 0.4%): ++++
- Growth/Days 1 ([1]; Conc. 0.5%): 0
- Growth/Days 2 ([1]; Conc. 0.5%): +++
- Growth/Days 4 ([1]; Conc. 0.5%): ++++

Compound: O=C([O-])CN(CCN(CC(=O)[O-])CC(=O)O)CC(=O)[O-].[Na+].[Na+].[Na+] [Na3EDTA, ethylenediaminetetraacetic acid trisodium salt]
- Collagenase Activity/Days 1 (collagenase; Conc. 0.025%): ++++
- Collagenase Activity/Days 2 (collagenase; Conc. 0.025%): ++++
- Collagenase Activity/Days 4 (collagenase; Conc. 0.025%): ++++
- Collagenase Activity/Days 7 (collagenase; Conc. 0.025%): ++++
- Collagenase Activity/Days 1 (collagenase; Conc. 0.05%): ++
- Collagenase Activity/Days 2 (collagenase; Conc. 0.05%): +++
- Collagenase Activity/Days 4 (collagenase; Conc. 0.05%): ++++
- Collagenase Activity/Days 7 (collagenase; Conc. 0.05%): ++++
- Collagenase Activity/Days 1 (collagenase; Conc. 0.075%): 0
- Collagenase Activity/Days 2 (collagenase; Conc. 0.075%): +
- Collagenase Activity/Days 4 (collagenase; Conc. 0.075%): +++
- Collagenase Activity/Days 7 (collagenase; Conc. 0.075%): ++++
- Collagenase Activity/Days 1 (collagenase; Conc. 0.1%): 0
- Collagenase Activity/Days 2 (collagenase; Conc. 0.1%): +
- Collagenase Activity/Days 4 (collagenase; Conc. 0.1%): +++
- Collagenase Activity/Days 7 (collagenase; Conc. 0.1%): +++
- Collagenase Activity/Days 1 (collagenase; Conc. 0.2%): 0
- Collagenase Activity/Days 2 (collagenase; Conc. 0.2%): 0
- Collagenase Activity/Days 4 (collagenase; Conc. 0.2%): ++
- Collagenase Activity/Days 7 (collagenase; Conc. 0.2%): +++
- Collagenase Activity/Days 1 (collagenase; Conc. 0.3%): 0
- Collagenase Activity/Days 2 (collagenase; Conc. 0.3%): 0
- Collagenase Activity/Days 4 (collagenase; Conc. 0.3%): +
- Collagenase Activity/Days 7 (collagenase; Conc. 0.3%): ++
- Collagenase Activity/Days 1 (collagenase; Conc. 0.4%): 0
- Collagenase Activity/Days 2 (collagenase; Conc. 0.4%): 0
- Collagenase Activity/Days 4 (collagenase; Conc. 0.4%): 0
- Collagenase Activity/Days 7 (collagenase; Conc. 0.4%): +
- Collagenase Activity/Days 1 (collagenase; Conc. 0.5%): 0
- Collagenase Activity/Days 2 (collagenase; Conc. 0.5%): 0
- Collagenase Activity/Days 4 (collagenase; Conc. 0.5%): 0
- Collagenase Activity/Days 7 (collagenase; Conc. 0.5%): +
- Growth/Days 1 ([1]; Conc. 0.025%): ++++
- Growth/Days 2 ([1]; Conc. 0.025%): ++++
- Growth/Days 4 ([1]; Conc. 0.025%): ++++
- Growth/Days 1 ([1]; Conc. 0.05%): ++++
- Growth/Days 2 ([1]; Conc. 0.05%): ++++
- Growth/Days 4 ([1]; Conc. 0.05%): ++++
- Growth/Days 1 ([1]; Conc. 0.075%): ++++
- Growth/Days 2 ([1]; Conc. 0.075%): ++++
- Growth/Days 4 ([1]; Conc. 0.075%): ++++
- Growth/Days 1 ([1]; Conc. 0.1%): ++++
- Growth/Days 2 ([1]; Conc. 0.1%): ++++
- Growth/Days 4 ([1]; Conc. 0.1%): ++++
- Growth/Days 1 ([1]; Conc. 0.2%): ++++
- Growth/Days 2 ([1]; Conc. 0.2%): ++++
- Growth/Days 4 ([1]; Conc. 0.2%): ++++
- Growth/Days 1 ([1]; Conc. 0.3%): +++
- Growth/Days 2 ([1]; Conc. 0.3%): +++
- Growth/Days 4 ([1]; Conc. 0.3%): +++
- Growth/Days 1 ([1]; Conc. 0.4%): ++++
- Growth/Days 2 ([1]; Conc. 0.4%): ++++
- Growth/Days 4 ([1]; Conc. 0.4%): ++++
- Growth/Days 1 ([1]; Conc. 0.5%): ++
- Growth/Days 2 ([1]; Conc. 0.5%): ++++
- Growth/Days 4 ([1]; Conc. 0.5%): ++++

Compound: O=C([O-])CN(CCN(CC(=O)[O-])CC(=O)[O-])CC(=O)[O-].[Na+].[Na+].[Na+].[Na+] [Na4EDTA, ethylenediaminetetraacetic acid tetrasodium salt]
- Collagenase Activity/Days 1 (collagenase; Conc. 0.025%): ++++
- Collagenase Activity/Days 2 (collagenase; Conc. 0.025%): ++++
- Collagenase Activity/Days 4 (collagenase; Conc. 0.025%): ++++
- Collagenase Activity/Days 7 (collagenase; Conc. 0.025%): ++++
- Collagenase Activity/Days 1 (collagenase; Conc. 0.05%): ++++
- Collagenase Activity/Days 2 (collagenase; Conc. 0.05%): ++++
- Collagenase Activity/Days 4 (collagenase; Conc. 0.05%): ++++
- Collagenase Activity/Days 7 (collagenase; Conc. 0.05%): ++++
- Collagenase Activity/Days 1 (collagenase; Conc. 0.075%): +
- Collagenase Activity/Days 2 (collagenase; Conc. 0.075%): ++
- Collagenase Activity/Days 4 (collagenase; Conc. 0.075%): +++
- Collagenase Activity/Days 7 (collagenase; Conc. 0.075%): ++++
- Collagenase Activity/Days 1 (collagenase; Conc. 0.1%): 0
- Collagenase Activity/Days 2 (collagenase; Conc. 0.1%): +
- Collagenase Activity/Days 4 (collagenase; Conc. 0.1%): ++
- Collagenase Activity/Days 7 (collagenase; Conc. 0.1%): +++
- Collagenase Activity/Days 1 (collagenase; Conc. 0.2%): 0
- Collagenase Activity/Days 2 (collagenase; Conc. 0.2%): +
- Collagenase Activity/Days 4 (collagenase; Conc. 0.2%): ++
- Collagenase Activity/Days 7 (collagenase; Conc. 0.2%): +++
- Collagenase Activity/Days 1 (collagenase; Conc. 0.3%): 0
- Collagenase Activity/Days 2 (collagenase; Conc. 0.3%): +
- Collagenase Activity/Days 4 (collagenase; Conc. 0.3%): +
- Collagenase Activity/Days 7 (collagenase; Conc. 0.3%): +++
- Collagenase Activity/Days 1 (collagenase; Conc. 0.4%): 0
- Collagenase Activity/Days 2 (collagenase; Conc. 0.4%): +
- Collagenase Activity/Days 4 (collagenase; Conc. 0.4%): +
- Collagenase Activity/Days 7 (collagenase; Conc. 0.4%): +++
- Collagenase Activity/Days 1 (collagenase; Conc. 0.5%): 0
- Collagenase Activity/Days 2 (collagenase; Conc. 0.5%): 0
- Collagenase Activity/Days 7 (collagenase; Conc. 0.5%): ++
- Growth/Days 1 ([1]; Conc. 0.025%): ++++
- Growth/Days 2 ([1]; Conc. 0.025%): ++++
- Growth/Days 4 ([1]; Conc. 0.025%): ++++
- Growth/Days 1 ([1]; Conc. 0.05%): ++++
- Growth/Days 2 ([1]; Conc. 0.05%): ++++
- Growth/Days 4 ([1]; Conc. 0.05%): ++++
- Growth/Days 1 ([1]; Conc. 0.075%): ++++
- Growth/Days 2 ([1]; Conc. 0.075%): ++++
- Growth/Days 4 ([1]; Conc. 0.075%): ++++
- Growth/Days 1 ([1]; Conc. 0.1%): ++++
- Growth/Days 2 ([1]; Conc. 0.1%): ++++
- Growth/Days 4 ([1]; Conc. 0.1%): ++++
- Growth/Days 1 ([1]; Conc. 0.2%): ++++
- Growth/Days 2 ([1]; Conc. 0.2%): ++++
- Growth/Days 4 ([1]; Conc. 0.2%): ++++
- Growth/Days 1 ([1]; Conc. 0.3%): ++++
- Growth/Days 2 ([1]; Conc. 0.3%): ++++
- Growth/Days 4 ([1]; Conc. 0.3%): ++++
- Growth/Days 1 ([1]; Conc. 0.4%): ++++
- Growth/Days 2 ([1]; Conc. 0.4%): ++++
- Growth/Days 4 ([1]; Conc. 0.4%): ++++
- Growth/Days 1 ([1]; Conc. 0.5%): ++++
- Growth/Days 2 ([1]; Conc. 0.5%): ++++
- Growth/Days 4 ([1]; Conc. 0.5%): ++++

Source: patent publication US20060112494A1, “Method of protecting an animal skin product from metalloproteinase activity” (priority 2004, published 2006)
